Test results taken from paper PMC7531004, “Discovery of gramicidin A analogues with altered activities by multidimensional screening of a one-bead-one-compound library” (Nature Communications, 2020).
Where a SMILES comes first, the peptide text is derived from it. [ ]: non-standard residue; d: D form. The star is where a group is joined. NHCH2CH2OH = OCCN*; For = O=C*

Assays:
[1] = H+/Na+ transport assay of bead-derived peptides (one-point); format: biochemical; set-up: key: relative activity; mean of two control wells = 1.00; conditions: bead-derived peptide solution, EYPC/EYPG LUVs;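 also: relative to parent gramicidin A activity set to 1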
Method: (§1) Each type of assay must be simplified and miniaturized to assess the activities of the library peptides in a 96-well format for the high-throughput screening.
H+/Na+ transport assay of bead-derived peptides.1,2,3 Trisodium 8-hydroxypyrene-1,3,6-trisulfonate
mini-extruder apparatus (Avanti Polar Lipids).
28.9 µmol) in CHCl3 (225 µL) and egg yolk phosphatidylglycerol (1.20 mg, 1.56 µmol) in CHCl3 (60.0 µL)
The thin film was hydrated and
1.0 mM pyranine) by sonication.
A suspension of the LUVs was immediately
used for the H+/Na+ transport assay.
The diluted solution of peptide
flat-bottom 96-well plate (655086, Greiner bio-one).
was vortexed at room temperature for 30 min.
(5/95, 3.0 µL) and the LUV suspension were mixed in each plate to determine 100% lysis. The untreated
LUV suspension was used to determine 0% lysis.
normalized against 100% lysis by Triton X-100 (Imax) and 0% lysis (I0) as following, where Ix is the
fluorescence intensity (Supplementary Equation 2).
I = 100 × (Ix – I0) / (Imax – I0) (2)
The mean value of the two control wells was set to 1.00. […]

[2] = tested on: P388 mouse leukemia cells; conditions: 92 h
Source text: Each type of assay must be simplified and miniaturized to assess the activities of the library peptides in a 96-well format for the high-throughput screening. […]
Mammalian cytotoxicity assay of bead-derived peptides . P388 cells were obtained from Institute of
Development Aging and Cancer (Tohoku University). The cells were maintained with growth medium
[RPMI1640 with phenol red ( Fujifilm Wako Pure Chemical) supplemented with 10% heat -inactivated fetal
bovine serum, pe nicillin G (100 units/mL), and streptomycin (100 µg/mL)] under atmosphere of 5% CO 2 at
The collected cells were resuspended into
the growth medium at 2 × 10^4 cells/mL. The stock solutions of the peptide library were 250-fold diluted
with the growth medium. Aliquots of the medium (100 µL) containing peptides and the latter medium
containing P388 cells (100 µL) were mixed in a 96-well cell culture plate (TR5003, TrueLine). The final
concentration of P388 cells was 1 × 10^4 cells/mL. After incubation under atmosphere of 5% CO2 at 37 °C
for 92 h, the numbers of viable cells were determined by
2-(4-iodophenyl)-3-(4-nitrophenyl)-5-(2,4-disulfophenyl)-2H-tetrazolium, monosodium salt (WST-1) assay.
A solution of 1-methoxy-5-methylphenazinium methyl sulfate (1-methoxy PMS) and WST-1 in the growth
medium (1-methoxy PMS 0.70 mg/mL in Milli-Q/WST-1 3.6 mg/mL in pH 7.4 HEPES buffer = 1/9) was
added to each well of the plate (10.0 µL/well). The plate was incubated for 4 h under atmosphere of 5% CO2
at 37 °C. The absorbance of each well at 415 nm was measured using a Benchmark microplate reader
(Bio-Rad). The cytotoxicities were evaluated as cell viability (%). […]

[3] = tested on: Streptococcus pyogenes SSI-9; assay: Antibacterial activity assay of bead-derived peptides (three concentrations); format: cell-based; set-up: key: +++: inhibition by the 640-fold diluted peptide solution; ++: inhibition by the 160-fold diluted solution; +: inhibition by the 40-fold diluted solution; -: no inhibition; conditions: S. pyogenes, bead-derived peptide solution, three concentrations
Method: as §1
Next, the peptides in groups A and B were subjected to the antibacterial assay and structural determination. Three peptide concentrations were applied to evaluate the growth inhibition of S. pyogenes and determine the antibacterial activity. […] Finally, the structures of the peptides were determined. […]
Antibacterial activity assay of bead-derived peptides. The stock solution of the peptide library was 4- and […]
16-fold diluted with DMSO. The non-diluted stock solution, 4-fold diluted solution, and 16-fold diluted […]
solution were transferred to the 96-well round-bottom plate (3367, Corning, 1.0 µL/well). To the solution of […]
peptide in each well was added a suspension of Streptococcus pyogenes SSI-9 strain in cation adjusted […]
Mueller Hinton Broth [40.0 µL, 2 × 10^5 colony forming units (CFU), 21 g/L Mueller Hinton Broth (Difco), 50 […]
mg/L Ca2+ (adjusted with CaCl2•2H2O), and 25 mg/L Mg2+ (adjusted with MgCl2•6H2O)] supplemented with […]
5% laked horse blood (Nippon Biotest Laboratories). The plate was incubated at 37 °C for 18 h, and the precipitation of the grown cells was examined. […]

SMILES	H+/Na+ transport activity normalized against the value of 1 (1.00) [1]	cell viability/% [2] [%]	antibacterial activity [3]
CNC(=O)C[C@@H](NC(=O)[C@@H](NC(=O)[C@@H](CC(C)C)NC(=O)[C@H](C)NC(=O)[C@H](NC(=O)[C@H](C)NC(=O)CNC(=O)[C@@H](NC=O)C(C)C)C(C)C)C(C)C)C(=O)N[C@@H](Cc1c[nH]c2ccccc12)C(=O)N[C@@H](C(=O)N[C@@H](Cc1c[nH]c2ccccc12)C(=O)N[C@H](CC(C)C)C(=O)N[C@@H](Cc1c[nH]c2ccccc12)C(=O)N[C@H](CC(C)C)C(=O)N[C@@H](Cc1c[nH]c2ccccc12)C(=O)NCCO)C(C)C [compound 12975] (For-VGA[dV]A[dL]V[dD](NHMe)W[dV]W[dL]W[dL]W-NHCH2CH2OH)	1.43	86.0	-
CNC(=O)C[C@@H](NC(=O)[C@H](Cc1c[nH]c2ccccc12)NC(=O)[C@@H](CC(C)C)NC(=O)[C@H](Cc1c[nH]c2ccccc12)NC(=O)[C@H](NC(=O)[C@H](Cc1c[nH]c2ccccc12)NC(=O)[C@@H](CC(C)C)NC(=O)[C@@H](NC(=O)[C@H](NC(=O)[C@H](C)NC(=O)[C@H](NC(=O)[C@H](C)NC(=O)CNC(=O)[C@@H](NC=O)C(C)C)C(C)C)C(C)C)C(C)C)C(C)C)C(=O)N[C@@H](Cc1c[nH]c2ccccc12)C(=O)NCCO [compound 5538] (For-VGA[dV]A[dV]V[dL]W[dV]W[dL]W[dD](NHMe)W-NHCH2CH2OH)	1.06	100.0	-
CNC(=O)C[C@@H](NC(=O)[C@H](Cc1c[nH]c2ccccc12)NC(=O)[C@@H](CC(C)C)NC(=O)[C@H](Cc1c[nH]c2ccccc12)NC(=O)[C@@H](CC(C)C)NC(=O)[C@H](Cc1c[nH]c2ccccc12)NC(=O)[C@H](NC(=O)[C@@H](NC(=O)[C@H](NC(=O)[C@H](C)NC(=O)[C@@H](CC(C)C)NC(=O)[C@H](C)NC(=O)CNC(=O)[C@@H](NC=O)C(C)C)C(C)C)C(C)C)C(C)C)C(=O)N[C@@H](Cc1c[nH]c2ccccc12)C(=O)NCCO [compound 11422] (For-VGA[dL]A[dV]V[dV]W[dL]W[dL]W[dD](NHMe)W-NHCH2CH2OH)	1.04	47.4	+
CC(C)C[C@@H](NC(=O)[C@H](C)NC(=O)CNC(=O)[C@@H](NC=O)C(C)C)C(=O)N[C@@H](C)C(=O)N[C@H](CC(C)C)C(=O)N[C@H](C(=O)N[C@@H](C(=O)N[C@@H](Cc1c[nH]c2ccccc12)C(=O)N[C@@H](C(=O)N[C@@H](Cc1c[nH]c2ccccc12)C(=O)N[C@@H](C(=O)N[C@@H](Cc1c[nH]c2ccccc12)C(=O)N[C@@H](C(=O)N[C@@H](Cc1c[nH]c2ccccc12)C(=O)NCCO)C(C)C)C(C)C)C(C)C)C(C)C)C(C)C [compound 7100] (For-VGA[dL]A[dL]V[dV]W[dV]W[dV]W[dV]W-NHCH2CH2OH)	1.07	100.0	-
CNC(=O)C[C@@H](NC(=O)[C@H](Cc1c[nH]c2ccccc12)NC(=O)[C@@H](CC(C)C)NC(=O)[C@H](Cc1c[nH]c2ccccc12)NC(=O)[C@H](NC(=O)[C@H](Cc1c[nH]c2ccccc12)NC(=O)[C@@H](CC(C)C)NC(=O)[C@@H](NC(=O)[C@H](NC(=O)[C@H](C)NC(=O)[C@H](NC(=O)[C@H](C)NC(=O)CNC(=O)[C@@H](NC=O)C(C)C)C(C)C)C(C)C)C(C)C)C(C)C)C(=O)N[C@@H](Cc1c[nH]c2ccccc12)C(=O)NCCO [compound 8400] (For-VGA[dV]A[dV]V[dL]W[dV]W[dL]W[dD](NHMe)W-NHCH2CH2OH)	1.01	34.4	-
CC(C)C[C@@H](NC(=O)[C@H](Cc1c[nH]c2ccccc12)NC(=O)[C@H](NC(=O)[C@@H](NC(=O)[C@H](NC(=O)[C@H](C)NC(=O)[C@H](NC(=O)[C@H](C)NC(=O)CNC(=O)[C@@H](NC=O)C(C)C)C(C)C)C(C)C)C(C)C)C(C)C)C(=O)N[C@@H](Cc1c[nH]c2ccccc12)C(=O)N[C@@H](C(=O)N[C@@H](Cc1c[nH]c2ccccc12)C(=O)N[C@@H](C(=O)N[C@@H](Cc1c[nH]c2ccccc12)C(=O)NCCO)C(C)C)C(C)C [compound 4830] (For-VGA[dV]A[dV]V[dV]W[dL]W[dV]W[dV]W-NHCH2CH2OH)	1.18	89.5	++
CC(C)C[C@@H](NC(=O)[C@H](C)NC(=O)[C@H](NC(=O)[C@H](C)NC(=O)CNC(=O)[C@@H](NC=O)C(C)C)C(C)C)C(=O)N[C@H](C(=O)N[C@H](CC(C)C)C(=O)N[C@@H](Cc1c[nH]c2ccccc12)C(=O)N[C@@H](C(=O)N[C@@H](Cc1c[nH]c2ccccc12)C(=O)N[C@@H](C(=O)N[C@@H](Cc1c[nH]c2ccccc12)C(=O)N[C@H](CC(C)C)C(=O)N[C@@H](Cc1c[nH]c2ccccc12)C(=O)NCCO)C(C)C)[C@H](C)O)C(C)C [compound 6572] (For-VGA[dV]A[dL]V[dL]W[dT]W[dV]W[dL]W-NHCH2CH2OH)	1.09	100.0	-
CNC(=O)C[C@@H](NC(=O)[C@@H](NC(=O)[C@@H](CC(C)C)NC(=O)[C@H](C)NC(=O)[C@@H](CC(C)C)NC(=O)[C@H](C)NC(=O)CNC(=O)[C@@H](NC=O)C(C)C)C(C)C)C(=O)N[C@@H](Cc1c[nH]c2ccccc12)C(=O)N[C@H](CC(C)C)C(=O)N[C@@H](Cc1c[nH]c2ccccc12)C(=O)N[C@H](CC(C)C)C(=O)N[C@@H](Cc1c[nH]c2ccccc12)C(=O)N[C@H](CC(C)C)C(=O)N[C@@H](Cc1c[nH]c2ccccc12)C(=O)NCCO [compound 8061] (For-VGA[dL]A[dL]V[dD](NHMe)W[dL]W[dL]W[dL]W-NHCH2CH2OH)	1.05	100.0	-
CC(C)C[C@@H](NC(=O)[C@H](C)NC(=O)[C@H](NC(=O)[C@H](C)NC(=O)CNC(=O)[C@@H](NC=O)C(C)C)C(C)C)C(=O)N[C@H](C(=O)N[C@H](CC(C)C)C(=O)N[C@@H](Cc1c[nH]c2ccccc12)C(=O)N[C@@H](C(=O)N[C@@H](Cc1c[nH]c2ccccc12)C(=O)N[C@@H](C(=O)N[C@@H](Cc1c[nH]c2ccccc12)C(=O)N[C@@H](C(=O)N[C@@H](Cc1c[nH]c2ccccc12)C(=O)NCCO)C(C)C)C(C)C)C(C)C)C(C)C [compound 2212] (For-VGA[dV]A[dL]V[dL]W[dV]W[dV]W[dV]W-NHCH2CH2OH)	1.18	11.5	+
CC(C)C[C@@H](NC(=O)[C@H](C)NC(=O)CNC(=O)[C@@H](NC=O)C(C)C)C(=O)N[C@@H](C)C(=O)N[C@@H](C(=O)N[C@H](C(=O)N[C@H](CC(C)C)C(=O)N[C@@H](Cc1c[nH]c2ccccc12)C(=O)N[C@@H](C(=O)N[C@@H](Cc1c[nH]c2ccccc12)C(=O)N[C@H](CC(C)C)C(=O)N[C@@H](Cc1c[nH]c2ccccc12)C(=O)N[C@@H](C(=O)N[C@@H](Cc1c[nH]c2ccccc12)C(=O)NCCO)[C@H](C)O)C(C)C)C(C)C)C(C)C [compound 5058] (For-VGA[dL]A[dV]V[dL]W[dV]W[dL]W[dT]W-NHCH2CH2OH)	1.02	100.0	-
